Laboratory results: US20110166206A1, “UBIQUILIN REGULATION OF PRESENILIN ENDOPROTEOLYSIS, AND SUPPRESSION OF POLYGLUTAMINE-INDUCED TOXICITY IN CELLS” (UNIVERSITY OF MARYLAND BIOTECHNOLOGY INSTITUTE, priority 2005, published 2011)

How the values were obtained:
Assay type in all cases: cell-based
endogenous PS1 NTF = assay: UBQLN overexpression in wild-type HEK293 cells, endogenous PS1 NTF immunoblot; conditions: normal HEK293 cells
Method: (C) Endogenous PS fragment levels were analyzed in HEK293 cells that were transfected with increasing amounts of UBQLN1 or UBQLN2 expression plasmids. Equivalent amounts of protein lysates were separated by 10% SDS-PAGE and immunoblotted with anti-PS1 NTF antibody. The filter was then reprobed with anti-ubiquilin antibody to ensure overexpression of UBQLN and with an anti-actin antibody to ensure equal protein loading. Overexpression of UBQLN decreases PS1 NTF levels and the extent of reduction was quantified again by densitometric analysis. Graph is quantification of untransfected and […] UBQLN cDNA plasmid transfected lanes.
Preparation of protein lysates, SDS-PAGE and immunoblotting of proteins were described previously. Primary antibodies used were rabbit anti-PS2 loop and rabbit anti-PS2 NH,-terminus, both raised to GST-PS2 fusion proteins; rabbit anti-ubiquilin [43] which reacts with UBQLN1 and UBQLN2 polypeptides; rat anti-PS1 NH2,-terminus (Chemicon International, Temecula, Calif.); rabbit anti-PS1 loop raised to GST-PS1 fusion proteins; goat anti-p27 and goat anti-actin (Santa Cruz Biotechnology, Santa Cruz, Calif.); mouse monoclonal anti-tubulin (Sigma-Aldrich, St. Louis, Mo.); rabbit anti-nicastrin (Abeam, Cambridge, Mass.), rabbit anti-Pen-2 (Zymed, San Francisco, Calif.); and rabbit anti-Aph-la (Covance, Berkeley, Calif.). […]

mouse cortical neurons = assay: Ubiquilin-1 overexpression in mouse primary neuronal cultures transfected with GFP-HttPolyQ74
Method: FIG. 10. […] Mouse cortical neurons (14 days in vitro) were transiently transfected with pEGFP (3 μg each well, a), or pEGFP-HttExon-1polyQ(74) alone (3 μg each well, b), or cotransfected with both pEGFP-HttExon-1polyQ(74) and ubiquilin-1 cDNA with the ratio indicated (3 μg of pEGFP-HttExon-1polyQ(74) plus 1.5 μg or 3 μg of ubiquilin-1 cDNA; c, d).
B. Overexpression of ubiquilin-1 reduces formation of GFP-HttPolyQ(74) inclusions in cultured mouse neurons. […] Overexpression of ubiquilin-1 reduces GFP-HttPolyQ(74)-induced cell death in cultured mouse neurons. 30 hours following transfection, the cultures were stained with both Hoechst 33342 and propidium iodide (PI) and then subjected for fluorescent microscopy analysis. PI positively stained cells were treated as dead cells and only the green (GFP-positive) cells were included in the cell death analysis. Results are mean±SD.
Next it was investigated whether the modulation of polyglutamine aggregation and toxicity by ubiquilin-1 overexpression is manifested in neuronal cells, which might be more relevant in terms of controlling neurodegeneration in HD and related disorders. […] The insolubility of the Htt protein was not measured in these cells due difficulties in preparing reliable soluble and insoluble material from neurons and because of a limitation in the number for cells required for the assay.

HeLa cells = assay: Co-transfection of ubiquilin-1 cDNA with GFP-Htt Exon 1 Q74 construct in HeLa cells
Method: FIG. 9. […] Immunoblots showing GFP-immunoreactivity after biochemical fractionation of parallel sets of HeLa cells transfected with the constructs described in (A) into Triton-X100 soluble and pellet fractions. • D. Densitometric quantification of anti-GFP immunoreactive bands depicting the relative amount of GFP-irnmunoreaction found in the pellet compared to that the total (soluble and pellet fractions combined).
HeLa cells were grown in DME supplemented with 10% FBS. Cells were transiently transfected with plasmid DNA using by calcium phosphate coprecipitation. Stable HeLa cell lines were isolated by cotransfection of EGFP expression constructs with a pNeo plasmid and selection with G418. Stable cell lines were identified by GFP-fluorescence.
Cell death was monitored either through examination of the nuclear morphology observed after Hoechst 33342 (1 μg/ml) staining, or through detecting the membrane selective permeability following 3 μM of propidium iodide (PI) staining. Terminal deoxynucleotidyl Transferase Biotin-dUTP Nick End Labeling (TUNEL) staining was performed with DeadEnd Colorimetric TUNEL staining kits purchased from Promega. For detecting caspase-3 activation, two methods were used. Cell lysates were separated by SDS-PAGE and probed with an antibody against the cleaved substrate for caspase-3. Alternatively, caspase activity was also detected by flurogenic techniques by incubating the cell lysates with a flurogenic caspase-3 substrate, AC-DEVD-AMC in a 96-well plate. After incubation, the cleaved free AMC was scanned by a fluorescence multi-well plate reader (SOSTmax, Sunnyvale, CA) with an excitation at 380 nm (excitation) and emission at 460 nm (emission).
Having established that expression of GFP-tagged Htt-Exon1-polyglutamine fusion proteins in HeLa cells caused a polyglutamine-number dependent increase in intracellular inclusion formation, Triton-X100 insolubility, and cell death, it was necessary to examined what effect overexpression of ubiquilin-1 has on these properties. […]

Substance: UBQLN1: PS-interacting protein ubiquilin-1, overexpressed in cells from a cDNA expression plasmid
- reduction of endogenous PS1 NTF levels (endogenous PS1 NTF): approximately 1.7 fold
- inclusion formation (mouse cortical neurons): decreased inclusion formation
- neuronal cell death (mouse cortical neurons): decreased GFP-HttPolyQ74-induced neuronal cell death
- GFP-HttPolyQ74 fusion protein accumulation (HeLa cells; anti-GFP immunoblot): dose-dependent increase in accumulation
- Triton-X100 solubility of GFP-HttPolyQ74 fusion protein (HeLa cells; biochemical fractionation): a greater proportion of the GFP-HttPolyQ74-fusion protein remained soluble
- cell death (HeLa cells; increasing amounts of ubiquilin-1 cDNA vs GFP-Htt Exon-1PolyQ74 alone): dose-dependent decrease in cell death
